Test results published in patent US20120065228A1, “COMPOSITIONS AND METHODS FOR TREATING, CONTROLLING, REDUCING, OR AMELIORATING OCULAR INFLAMMATORY WITH LOWER RISK OF INCREASED INTRAOCULAR PRESSURE” (priority 2007, published 2012).
Several values for one entry are separate records, joined by “and”; a condition that tells them apart may be missing. Equal values may be shown once. Read-outs that look alike come from different tables or passages of the source.

Columns and labels:
Format in all cases: in vivo
[1] = system: New Zealand White rabbits
Description: On Days 1-31, animals received daily topical doses of the appropriate test article into the right eye. Animals were dosed four times per day, with doses administered 2 hours apart. Doses were administered using a calibrated 50-μL pipette. The eyelids were held close for 10 seconds immediately following dosing. The time of each dose administration was recorded.
Animals determined to be moribund were euthanized with an intravenous injection of commercial euthanasia solution.

rabbit eye [2] = assay: Pupillary diameter measurement, rabbit paracentesis model; conditions: individual eyes; for Pupillary diameter T2: −5 min: 5 min before the first paracentesis; for Pupillary diameter T3: +115 min: 5 min before the second paracentesis; for Pupillary diameter Δ(T3 − T1): +115 min minus −180 min; for Pupillary diameter T1: −180 min: basal
Description: (§1) Each rabbit was placed in a restraint device and tagged with the alphanumeric code. The formulations were instilled (50 μl) into the conjunctival sac of both eyes 180, 120, 90 and 30 min before the first paracentesis; then 15, 30, 90 min after the first paracentesis. To perform the first paracentesis the animals were anaesthetized by intravenous injection of 5 mg/kg Zoletil® (Virbac; 2.5 mg/kg tiletamine HCl and 2.5 mg/kg zolazepam HCl) and one drop of local anesthetic (Novesina®, Novartis) was administered to the eye. Anterior chamber paracentesis was performed with a 26 G needle attached to a tuberculin syringe; the needle was introduced into the anterior chamber through the cornea, taking care not to damage the tissues. Two hours after the ® first paracentesis, the animals were sacrificed with 0.4 ml Tanax® (Intervet International B.V.) and the second paracentesis was performed. About 100 μl of aqueous humor were removed at the second paracentesis. Aqueous humor was immediately split in four aliquots and stored at −80° C. until analysis. Then both eyes were enucleated and the iris-ciliary body was carefully excised, placed in polypropylene tubes, and stored at −80° C. until analysis.
The pupillary diameter of both eyes was measured with a Castroviejo caliper 180 min and 5 min before the first paracentesis and 5 min before the second paracentesis.
(§2) Pupillary diameter, PGE2, protein, PMN, and MPO were expressed as mean±SEM. Statistical analysis was performed using one way ANOVA followed by a Newman-Keuls post hoc test. Clinical score was expressed as % of eyes and the statistical analysis was performed using Kruskal-Wallis followed by a Dunn post hoc test. P<0.05 was considered statistically significant in both cases. Prism 4 software (GraphPad Software, Inc.) was used for the analysis and graphs.

rabbit eye [3] = assay: Clinical evaluation by slit lamp (clinical score), rabbit paracentesis model; parameters: key to Clinical Score −180 min / Clinical Score −5 min / Clinical Score +115 min: 0: normal; 1: discrete dilatation of iris and conjunctival vessels; 2: moderate dilatation of iris and conjunctival vessels; 3: intense iridal hyperemia with flare in the anterior chamber; 4: intense iridal hyperemia with flare in the anterior chamber and presence of fibrinous exudates; conditions: for Clinical Score −5 min: 5 min before the first paracentesis; for Clinical Score −5 min / Clinical Score +115 min / Clinical Score −180 min: individual eyes; for Clinical Score +115 min: 5 min before the second paracentesis; for Clinical Score −180 min: basal
[4] = system: PGE2 in the aqueous humor; assay: Prostaglandin E2 (PGE2) measurement in aqueous humor, rabbit paracentesis model; conditions: for PGE2 in aqueous humor, statistical significance versus CTR: p<0.05; for PGE2 in aqueous humor, Mean / PGE2 in aqueous humor: second paracentesis; for PGE2 in aqueous humor: individual eyes
Description: as §1
For the quantitative determination of PGE2 in the aqueous humor we used the PGE2 Immunoassay kit (R&D Systems; Cat. No. KGE004; Lot. No. 240010). Eleven microliters or 16 μl of aqueous humor were diluted to 110 μl or 160 μl with the calibrator diluent solution provided with the kit. One hundred microliters of samples and of standards were load into a 96-well plate and recorded in a plate layout. Samples were treated following the assay procedure described in the kit. A microplate reader (GDV, Italy; model DV 990 B/V6) set at 450 nm (wavelength correction at 540 nm) was used for making the calibration and analyzing the samples.
as §2

[5] = system: protein concentration in the aqueous humor; assay: Protein measurement in aqueous humor, rabbit paracentesis model; conditions: for Protein in aqueous humor, Mean / Protein in aqueous humor: second paracentesis; for Protein in aqueous humor: individual eyes
Description: as §1
For protein concentration determination in the aqueous humor we used the Protein Quantification Kit (Fluka; Cat. No. 77371; Lot. No. 1303129). Five microliters of aqueous humor were diluted to 100 μl with water. Twenty microliters of samples and of standards were load into a 96-well plate and recorded in a plate layout. Samples were treated following the assay procedure described in the kit. A microplate reader (GDV, Italy; model DV 990 B/V6) set at 670 nm was used for making the calibration and analyzing the samples.
as §2

leukocytes (PMN) = assay: Leukocytes (PMN) measurement in aqueous humor, rabbit paracentesis model; conditions: second paracentesis; for PMN in aqueous humor: individual eyes
Description: as §1
For the determination of the number of leukocytes we used a haemocytometer (Improved Neubauer Chamber; Bright-line. Hausser Scientific) and a Polyvar 2 microscope (Reichert-Jung).
as §2

Myeloperoxidase (MPO) = Myeloperoxidase (MPO) activity in iris-ciliary body, rabbit paracentesis model; conditions: for MPO Unit/g: iris-ciliary body samples collected after the second paracentesis, individual eyes (DX/SX); for MPO activity in iris-ciliary body, Mean: after the second paracentesis
Description: as §1
The activity of MPO was measured as previously described by Williams et al. The iris-ciliary bodies were carefully dried, weighed and immersed in 1 ml of hexa-decyl-trimethyl-ammonium bromide solution. Then, the samples were sonicated for 10 sec on ice by a ultrasound homogenizer (HD 2070, Bandelin electronic), freeze-thawed three times, sonicated for 10 sec and centrifuged at 14,000 g for 10 min to remove cellular debris. An aliquot of the supernatant (40-200 μl) was diluted to 3 ml with the o-dianisidine 2HCl/H2O2 solution. The change in absorbance at 460 nm was continuously monitored for 5 min by a spectrophotometer (UV/Vis Spectrometer Lambda EZ 201; Perkin Elmer). The slope of the line (Δ/min) was determined for each sample and used to calculate the number of units of MPO in the tissue as follows:
were ε=11.3 mM^−1. Values were expressed as units of MPO/g of tissue.
as §2

[6] = 5 mg/g BOL-303242-X ([…]) topical 4 x daily, individual rabbits, Group C
[7] = 1 mg/g BOL-303242-X (0.05 mg/dose) topical 4 x daily, individual rabbit, Group D
[8] = 0.5% topical formulation, +115 min, 8 eyes

Cc1ccc2c(NC[C@](O)(CC(C)(C)c3cc(F)cc4c3OCC4)C(F)(F)F)cccc2n1 [BOL-30324 2-X]
Day of Death (day euthanized or found dead) [1, 6]: 17
Recorded Notes (mortality) [1, 6]: Euthanized due to severe diarrhea.

Cc1ccc2c(NC[C@](O)(CC(C)(C)c3cc(F)cc4c3OCC4)C(F)(F)F)cccc2n1 [BOL-303242 X]
Day of Death (day euthanized or found dead) [1, 7]: 29
Recorded Notes (mortality) [1, 7]: Found dead.

CC(C(=O)O)c1ccc(-c2ccccc2)c(F)c1 (stereo not drawn) [F, flurbiprofen, reference compound]
Pupillary diameter T2: −5 min (rabbit eye [2]; 0.03% topical formulation): 6.0 mm (3×) and 6.5 mm (3×) and 7.0 mm and 5.5 mm
Pupillary diameter T3: +115 min (rabbit eye [2]; 0.03% topical formulation): 4.0 mm and 3.5 mm and 5.5 mm (2×) and 5.0 mm (2×) and 4.5 mm and 6.0 mm
Pupillary diameter Δ(T3 − T1) (rabbit eye [2]; 0.03% topical formulation): −1.0 mm (3×) and −1.5 mm (3×) and 0.0 mm (2×)
Pupillary diameter T1: −180 min (rabbit eye [2]; 0.03% topical formulation): 5.0 mm (2×) and 7.0 mm and 6.0 mm (4×) and 5.5 mm
Clinical Score −5 min (rabbit eye [3]; 0.03% topical formulation): 0
Clinical Score +115 min (rabbit eye [3]; 0.03% topical formulation): 2
Clinical score as percentage of eyes, Score (%) 2 (rabbit eye [3]; 0.03% topical formulation, +115 min, 8 eyes): 100%
Clinical Score −180 min (rabbit eye [3]; 0.03% topical formulation): 0
Clinical score as percentage of eyes, Score (%) 0 (rabbit eye [3]; 0.03% topical formulation, −5 min, 8 eyes): 100%
Clinical score as percentage of eyes, Score (%) 0 (rabbit eye [3]; 0.03% topical formulation, −180 min (basal), 8 eyes): 100%
PGE2 in aqueous humor, statistical significance versus CTR ([4]; 0.03% topical formulation): statistically significant versus CTR
PGE2 in aqueous humor, Mean ([4]; 0.03% topical formulation): 1.189 ng/mL
PGE2 in aqueous humor ([4]; 0.03% topical formulation): 1.04 ng/ml and 0.75 ng/ml and 0.85 ng/ml and 1.11 ng/ml and 2.11 ng/ml (2×) and 0.93 ng/ml and 0.61 ng/ml
Protein in aqueous humor, statistical significance vs CTR ([5]; 0.03% topical formulation, p<0.001): statistical significance
Protein in aqueous humor, Mean ([5]; 0.03% topical formulation): 20.910 mg/mL
Protein in aqueous humor ([5]; 0.03% topical formulation): 20.78 mg/mL and 28.80 mg/mL and 23.41 mg/mL and 20.21 mg/mL and 17.53 mg/mL and 15.12 mg/mL and 20.52 mg/mL
PMN in aqueous humor, Mean (leukocytes (PMN); 0.03% topical formulation): 30.000 number/μl
PMN in aqueous humor (leukocytes (PMN); 0.03% topical formulation): 50 number/μl and 40 number/μl (2×) and 20 number/μl (2×) and 10 number/μl and 30 number/μl
MPO Unit/g (Myeloperoxidase (MPO); 0.03% F): 1.10 Unit/g and 1.70 Unit/g and 0.34 Unit/g and 0.75 Unit/g and 0.74 Unit/g and 0.63 Unit/g and 0.73 Unit/g and 1.27 Unit/g
MPO activity in iris-ciliary body, Mean (Myeloperoxidase (MPO); 0.03% topical formulation): 0.906 MPO Unit/g

CCOC(=O)O[C@]1(C(=O)OCCl)CC[C@H]2[C@@H]3CCC4=CC(=O)C=C[C@]4(C)[C@H]3[C@@H](O)C[C@@]21C [LE, loteprednol etabonate, reference compound]
Pupillary diameter T2: −5 min (rabbit eye [2]; 0.5% topical formulation): 6.0 mm (3×) and 6.5 mm (5×)
Pupillary diameter T3: +115 min (rabbit eye [2]; 0.5% topical formulation): 4.5 mm and 5.0 mm (2×) and 5.5 mm (2×) and 6.0 mm (3×)
Pupillary diameter Δ(T3 − T1) (rabbit eye [2]; 0.5% topical formulation): −1.5 mm (2×) and −1.0 mm (3×) and 0.0 mm and −0.5 mm (2×)
Pupillary diameter T1: −180 min (rabbit eye [2]; 0.5% topical formulation): 6.0 mm (3×) and 6.5 mm (5×)
Clinical Score −5 min (rabbit eye [3]; 0.5% topical formulation): 0
Clinical Score +115 min (rabbit eye [3]; 0.5% topical formulation): 2 (2×) and 1 (6×)
Clinical score as percentage of eyes, Score (%) 1 (rabbit eye [3]; [8]): 75%
Clinical score as percentage of eyes, Score (%) 2 (rabbit eye [3]; [8]): 25%
Clinical Score −180 min (rabbit eye [3]; 0.5% topical formulation): 0
Clinical score, difference versus CTR (rabbit eye [3]; 0.5% topical formulation, p<0.05): significant difference versus CTR
Clinical score as percentage of eyes, Score (%) 0 (rabbit eye [3]; 0.5% topical formulation, −5 min, 8 eyes): 100%
Clinical score as percentage of eyes, Score (%) 0 (rabbit eye [3]; 0.5% topical formulation, −180 min (basal), 8 eyes): 100%
PGE2 in aqueous humor, statistical significance versus CTR ([4]; 0.5% topical formulation): statistically significant versus CTR
PGE2 in aqueous humor, Mean ([4]; 0.5% topical formulation): 0.672 ng/mL
PGE2 in aqueous humor ([4]; 0.5% topical formulation): ^2N/D and 0.23 ng/ml and 0.68 ng/ml and 1.10 ng/ml
Protein in aqueous humor, Mean ([5]; 0.5% topical formulation): 33.905 mg/mL
Protein in aqueous humor ([5]; 0.5% topical formulation): 36.14 mg/mL and 39.10 mg/mL and 34.69 mg/mL and 26.10 mg/mL and 26.30 mg/mL and 28.16 mg/mL and 40.90 mg/mL and 39.85 mg/mL
PMN in aqueous humor, Mean (leukocytes (PMN); 0.5% topical formulation): 28.333 number/μl
PMN in aqueous humor (leukocytes (PMN); 0.5% topical formulation): 40 number/μl (2×) and 20 number/μl (3×) and 30 number/μl
MPO Unit/g (Myeloperoxidase (MPO); 0.5% LE): 0.30 Unit/g and 0.51 Unit/g and 0.81 Unit/g and 0.60 Unit/g and 0.73 Unit/g and 1.01 Unit/g
MPO activity in iris-ciliary body, Mean (Myeloperoxidase (MPO); 0.5% topical formulation): 0.661 MPO Unit/g
